The target of the assay is T1, GlyT1 (Homo sapiens, UniProt P48067).
T1 construct: expressed in transfected cells
T1 sequence (P48067 1-706): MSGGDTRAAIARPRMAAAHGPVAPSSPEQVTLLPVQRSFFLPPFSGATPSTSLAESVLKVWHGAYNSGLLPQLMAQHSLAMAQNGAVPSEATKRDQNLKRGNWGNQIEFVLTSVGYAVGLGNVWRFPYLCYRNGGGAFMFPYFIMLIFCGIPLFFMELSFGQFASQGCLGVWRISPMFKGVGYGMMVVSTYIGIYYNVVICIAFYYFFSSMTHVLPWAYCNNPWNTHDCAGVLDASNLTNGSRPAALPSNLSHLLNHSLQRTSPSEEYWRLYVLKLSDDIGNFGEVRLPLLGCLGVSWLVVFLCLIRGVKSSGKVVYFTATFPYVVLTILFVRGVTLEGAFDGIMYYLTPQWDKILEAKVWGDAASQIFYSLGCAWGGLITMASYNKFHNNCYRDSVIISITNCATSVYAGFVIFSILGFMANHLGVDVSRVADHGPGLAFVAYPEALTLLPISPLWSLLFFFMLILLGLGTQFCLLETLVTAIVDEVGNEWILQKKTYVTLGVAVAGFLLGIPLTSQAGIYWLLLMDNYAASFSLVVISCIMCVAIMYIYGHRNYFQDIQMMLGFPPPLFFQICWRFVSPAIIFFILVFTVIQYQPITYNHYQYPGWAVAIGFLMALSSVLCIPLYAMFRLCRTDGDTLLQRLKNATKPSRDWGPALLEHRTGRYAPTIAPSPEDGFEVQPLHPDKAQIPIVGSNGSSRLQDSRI
Briefly: Glycine Transporter 1 (GlyT1) uptake assay, scintillation proximity assay of [14C]-glycine uptake. The format is cell-based. Particulars: SPA, four parameter logistic fit, read-out: GlyT1 (pIC50) (converted). Put shortly:
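[14C]-glycine uptake read by scintillation proximity on a plate counter. IC50 from four-parameter logistic fit of dose-response data.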
Regarding `CC(Oc1ccc(S(C)(=O)=O)cc1C(=O)N1CCc2c(c(C(F)(F)F)nn2-c2ccccc2)C1)C(F)(F)F` (stereo not drawn) [Example 168, 5-{5-Methanesulfonyl-2-[(1 1 1-trifluoropropan-2-yl)oxy]benzoyl}-1-phenyl-3-(trifluoromethyl)-1H 4H 5H 6H 7H-pyrazolo[4,3-c]pyridine], the IC50 is 1000 to 10000 nM.

Turning to `N#Cc1ccc(C2CCCC2)c(C(=O)N2CCc3nn(-c4ccccc4)cc3C2)c1` [Example 169, 4-Cyclopentyl-3-{2-phenyl-2H 4H 5H 6H 7H-pyrazolo[4,3-c]pyridine-5-carbonyl}benzonitrile], the IC50 was 100 to 1000 nM.

As for `CS(=O)(=O)c1ccc(C2CCCC2)c(C(=O)N2CCc3nn(-c4ccccc4)cc3C2)c1` [Example 170, 5-(2-Cyclopentyl-5-methanesulfonylbenzoyl)-2-phenyl-2H 4H 5H 6H 7H-pyrazolo[4,3-c]pyridine], the IC50 was less than 100 nM. With `O=C(c1cc(N2CCOC2=O)ccc1C1CCCC1)N1CCc2nn(-c3ccccc3)cc2C1` [Example 171, 3-(4-Cyclopentyl-3-{2-phenyl-2H 4H 5H 6H 7H-pyrazolo[4,3-c]pyridine-5-carbonyl}phenyl)-1 3-oxazolidin-2-one], the IC50 is 100 to 1000 nM. Then `CC(Oc1ccc(N2CCOC2=O)cc1C(=O)N1CCc2nn(-c3ccccc3)cc2C1)C(F)(F)F` (stereo not drawn) [Example 172, 3-(3-{2-Phenyl-2H 4H 5H 6H 7H-pyrazolo[4,3-c]pyridine-5-carbonyl}-4-[(1 1 1-trifluoropropan-2-yl)oxy]phenyl)-1 3-oxazolidin-2-one], with 1000 to 10000 nM; and `[2H]C1(c2ccc(C#N)cc2C(=O)N2CCc3nn(-c4ccccc4)cc3C2)CCCC1` [Example 173, 4-[(1-^2H)Cyclopentyl]-3-{2-phenyl-2H 4H 5H 6H 7H-pyrazolo[4,3-c]pyridine-5-carbonyl}benzonitrile], with 100 to 1000 nM. Consider `N#Cc1ccc(C2CCC2)c(C(=O)N2CCc3nn(-c4ccccc4)cc3C2)c1` [Example 174, 4-Cyclobutyl-3-{2-phenyl-2H 4H 5H 6H 7H-pyrazolo[4,3-c]pyridine-5-carbonyl}benzonitrile], for which the IC50 was 1000 to 10000 nM. The result for `N#Cc1ccc(C2CCCC2)c(C(=O)N2CCc3nn(-c4ccccc4)cc3C2)c1F` [Example 175, 4-Cyclopentyl-2-fluoro-3-{2-phenyl-2H 4H 5H 6H 7H-pyrazolo[4,3-c]pyridine-5-carbonyl}benzonitrile] reads 100 to 1000 nM; that for `COc1c(C#N)ccc(OC(C)C(F)(F)F)c1C(=O)N1CCc2nn(-c3ccccc3)cc2C1` (stereo not drawn) [Example 176, 2-Methoxy-3-{2-phenyl-2H 4H 5H 6H 7H-pyrazolo[4,3-c]pyridine-5-carbonyl}-4-[(1 1 1-trifluoropropan-2-yl)oxy]benzonitrile], less than 100 nM; that for `CC(Oc1ccc(C#N)c(Cl)c1C(=O)N1CCc2nn(-c3ccc(F)cc3)cc2C1)C(F)(F)F` (stereo not drawn) [Example 177, 2-Chloro-3-[2-(4-fluorophenyl)-2H 4H 5H 6H 7H-pyrazolo[4,3-c]pyridine-5-carbonyl]-4-[(1 1 1-trifluoropropan-2-yl)oxy]benzonitrile], 100 to 1000 nM.

For the compound `N#Cc1ccc(C2(F)COC2)c(C(=O)N2CCc3nn(-c4ccccc4)cc3C2)c1F` [Example 178, 2-Fluoro-4-(3-fluorooxetan-3-yl)-3-{2-phenyl-2H 4H 5H 6H 7H-pyrazolo[4,3-c]pyridine-5-carbonyl}benzonitrile], the IC50 is greater than 10000 nM.

For `CC(Oc1ccc(C#N)c(Cl)c1C(=O)N1CCc2c(cnn2-c2ccc(F)cc2F)C1)C(F)(F)F` (stereo not drawn) [Example 179, 2-Chloro-3-[1-(2 4-difluorophenyl)-1H 4H 5H 6H 7H-pyrazolo[4,3-c]pyridine-5-carbonyl]-4-[(1 1 1-trifluoropropan-2-yl)oxy]benzonitrile], the IC50 is 100 to 1000 nM. Consider `N#Cc1ccc(C2CCC2)c(C(=O)N2CCc3nn(-c4ccccc4)cc3C2)c1F` [Example 180, 4-Cyclobutyl-2-fluoro-3-{2-phenyl-2H 4H 5H 6H 7H-pyrazolo[4,3-c]pyridine-5-carbonyl}benzonitrile], for which the IC50 was 1000 to 10000 nM.

With `CC(Oc1ccc(C#N)cc1C(=O)N1CCc2nn(-c3ccc(F)cc3)cc2C1)C(F)(F)F` (stereo not drawn) [Example 181, 3-[2-(4-Fluorophenyl)-2H 4H 5H 6H 7H-pyrazolo[4,3-c]pyridine-5-carbonyl]-4-[(1 1 1-trifluoropropan-2-yl)oxy]benzonitrile], the IC50 is 1000 to 10000 nM. As for `CC(Oc1ccc(C#N)c(Cl)c1C(=O)N1CCc2c(c(C(F)(F)F)nn2C)C1)C(F)(F)F` (stereo not drawn) [Example 182, 2-Chloro-3-[1-methyl-3-(trifluoromethyl)-1H 4H 5H 6H 7H-pyrazolo[4,3-c]pyridine-5-carbonyl]-4-[(1 1 1-trifluoropropan-2-yl)oxy]benzonitrile], the IC50 is 1000 to 10000 nM. Then `CC(Oc1ccc(C#N)c(Cl)c1C(=O)N1CCc2[nH]ncc2C1)C(F)(F)F` (stereo not drawn) [Example 183, 2-Chloro-3-{1H 4H 5H 6H 7H-pyrazolo[4,3-c]pyridine-5-carbonyl}-4-[(1 1 1-trifluoropropan-2-yl)oxy]benzonitrile], with greater than 10000 nM.

On to `CCOc1c2c(nn1-c1ccc(F)cc1)CCN(C(=O)c1c(OC(C)C(F)(F)F)ccc(C#N)c1Cl)C2` (stereo not drawn) [Example 184, 2-Chloro-3-[3-ethoxy-2-(4-fluorophenyl)-2H 4H 5H 6H 7H-pyrazolo[4,3-c]pyridine-5-carbonyl]-4-[(1 1 1-trifluoropropan-2-yl)oxy]benzonitrile], for which the IC50 is 1000 to 10000 nM.

For the compound `CC(Oc1ccc(C#N)c(Cl)c1C(=O)N1Cc2cnn(-c3ccc(F)cc3)c2C(C)(C)C1)C(F)(F)F` (stereo not drawn) [Example 185, 2-Chloro-3-[1-(4-fluorophenyl)-7 7-dimethyl-1H 4H 5H 6H 7H-pyrazolo[4,3-c]pyridine-5-carbonyl]-4-[(1 1 1-trifluoropropan-2-yl)oxy]benzonitrile], the IC50 is less than 100 nM. The result for `CC(Oc1ccc(C#N)c(Cl)c1C(=O)N1CCc2nn(C)c(C(F)(F)F)c2C1)C(F)(F)F` (stereo not drawn) [Example 186, 2-Chloro-3-[2-methyl-3-(trifluoromethyl)-2H 4H 5H 6H 7H-pyrazolo[4,3-c]pyridine-5-carbonyl]-4-[(1 1 1-trifluoropropan-2-yl)oxy]benzonitrile] reads 1000 to 10000 nM.

For `N#Cc1ccc(C2(F)CCCC2)c(C(=O)N2CCc3nn(-c4ccccc4)cc3C2)c1F` [Example 187, 2-Fluoro-4-(1-fluorocyclopentyl)-3-{2-phenyl-2H 4H 5H 6H 7H-pyrazolo[4,3-c]pyridine-5-carbonyl}benzonitrile], the IC50 was 100 to 1000 nM. Take `N#Cc1ccc(C2(F)CCCC2)c(C(=O)N2CCc3nn(-c4ccc(F)cc4)cc3C2)c1F` [Example 188, 2-Fluoro-4-(1-fluorocyclopentyl)-3-[2-(4-fluorophenyl)-2H 4H 5H 6H 7H-pyrazolo[4,3-c]pyridine-5-carbonyl]benzonitrile]: the IC50 was 100 to 1000 nM. Then `Cc1c2c(nn1-c1ccc(F)cc1)CCN(C(=O)c1c(OC(C)C(F)(F)F)ccc(C#N)c1Cl)C2` (stereo not drawn) [Example 189, 2-Chloro-3-[2-(4-fluorophenyl)-3-methyl-2H 4H 5H 6H 7H-pyrazolo[4,3-c]pyridine-5-carbonyl]-4-[(1 1 1-trifluoropropan-2-yl)oxy]benzonitrile], with 100 to 1000 nM; and `Cc1nn(-c2ccc(F)cc2)c2c1CN(C(=O)c1c(OC(C)C(F)(F)F)ccc(C#N)c1Cl)CC2` (stereo not drawn) [Example 190, 2-Chloro-3-[1-(4-fluorophenyl)-3-methyl-1H 4H 5H 6H 7H-pyrazolo[4,3-c]pyridine-5-carbonyl]-4-[(1 1 1-trifluoropropan-2-yl)oxy]benzonitrile], with 100 to 1000 nM.

Take `CC(Oc1ccc(C#N)c(Cl)c1C(=O)N1Cc2cn(-c3ccc(F)cc3)nc2C(C)(C)C1)C(F)(F)F` (stereo not drawn) [Example 191, 2-Chloro-3-[2-(4-fluorophenyl)-7 7-dimethyl-2H 4H 5H 6H 7H-pyrazolo[4,3-c]pyridine-5-carbonyl]-4-[(1 1 1-trifluoropropan-2-yl)oxy]benzonitrile]: the IC50 is 1000 to 10000 nM. With `COc1c(C#N)ccc(OC(C)C(F)(F)F)c1C(=O)N1Cc2cn(-c3ccc(F)cc3)nc2C(C)(C)C1` (stereo not drawn) [Example 192, 3-[2-(4-Fluorophenyl)-7 7-dimethyl-2H 4H 5H 6H 7H-pyrazolo[4,3-c]pyridine-5-carbonyl]-2-methoxy-4-[(1 1 1-trifluoropropan-2-yl)oxy]benzonitrile], the IC50 was 1000 to 10000 nM.

As to `CC(Oc1ccc(C#N)c(Cl)c1C(=O)N1CCc2nn(-c3ccccc3)cc2C1)C(F)(F)F` (stereo not drawn) [Example 193, 2-Chloro-3-{2-phenyl-2H 4H 5H 6H 7H-pyrazolo[4,3-c]pyridine-5-carbonyl}-4-[(1 1 1-trifluoropropan-2-yl)oxy]benzonitrile], the IC50 was 100 to 1000 nM.

As to `COc1c(C#N)ccc(OC(C)C(F)(F)F)c1C(=O)N1CCc2nn(-c3ccc(F)cc3F)cc2C1` (stereo not drawn) [Example 194, 3-[2-(2 4-Difluorophenyl)-2H 4H 5H 6H 7H-pyrazolo[4,3-c]pyridine-5-carbonyl]-2-methoxy-4-[(1 1 1-trifluoropropan-2-yl)oxy]benzonitrile], the IC50 is 100 to 1000 nM.

The record behind these values is patent US9708334B2, “Substituted 2,4,5,6-tetrahydropyrrolo[3,4-c]pyrazole and 4,5,6,7-tetrahydro-2H-pyrazolo[4,3-c]pyridine compounds as GlyT1 inhibitors” (DART NEUROSCIENCE (CAYMAN) LTD., priority 2014, dated 2017).
